Ends that are not written are not given here.
How the values were obtained:
normal skin tissue = assay: Skin toxicity, TUNEL assay; conditions: subcutaneous injection, 24h; VW5 5mg/kg; DMSO 100μl 100%
Method: The potential toxicity of peptides to normal skin tissues was further tested by TUNEL assay ([Huang et al., 2009]). […] The 100μl 100% DMSO treatment served as a positive control, which was well-known for its toxicity to induce skin necrosis. Then, the skin samples were harvested and were subjected to TUNEL assay and counterstain with 4,6-diamidino-2-phenylindole (DAPI).

[1] = tested on: human red blood cells (hRBCs); assay: Hemolytic activity; assay type: cell-based; conditions: for HC5 (MHC), lowest concentration that caused 5% hemolysis: hRBC in PBS pH 7.2, 1h at 37°C, absorbance 570nm, vs 0.1% Triton X-100, highest test concentration 128μM; for Therapeutic index (TI): hRBC, ratio of MHC to GM
Source text: The hemolytic activity of peptides was reflected by the releasing amount of hemoglobin from erythrocytes lysis induced by peptides ([Dong et al., 2014a]). The informed consent was obtained from the volunteers (3 healthy 25-year-old male volunteers) before the experiment. In brief, the human red blood cells (hRBCs), donated by volunteer, were collected, washed, and resuspended in PBS at pH 7.2. The peptides were serially diluted in PBS at different concentrations in a 96-well cell cultures plate and incubated with 50μl hRBCs for 1h at 37°C. The 0.1% Trition X-100 was selected as the treatment of positive control and the negative control was the hRBCs treated with PBS. After 1h incubation, the supernatant, obtained by centrifuging the plate 1,000g for 5min, was transferred to a brand-new plate for absorbance detection at 570nm. The releasing amount of hemoglobin was converted to the percent hemolysis against to 0.1% Triton X-100 treatment. The lowest concentration caused 5% hemolysis of hRBCs and was defined as the lowest hemolytic concentration of antimicrobial peptide.

P. aeruginosa 27853 = assay type: cell-based, Pseudomonas aeruginosa ATCC 27853; conditions: 27853
Method: The famous microtiter dilution, National Committee for Clinical Laboratory Standards, was adopted to measure the antimicrobial ability of the engineering peptides ([Chou et al., 2016]). In brief, the 50μl with serial dilution was incubated with the same volume bacteria (1×10^5CFU/ml in midi-logarithmic phase) in a 96-well plate 18–24h at 37°C. The positive control was the bacteria treated with culture medium and the negative control was merely culture medium. […] The antimicrobial performance of peptides against P. aeruginosa 27853 cells was further studied under the complicated physiological conditions ([Lyu et al., 2016]). […] The serum was also taken into the consideration for the adverse impact on the antimicrobial effect of peptides.

S.epidermidis 12228 = assay type: cell-based, Staphylococcus epidermidis ATCC 12228
Source text: (§1) The tested strains were kindly provided by the laboratory of Veterinary Microbiology and Immunology, the College of Veterinary Medicine, Northeast Agricultural University (gram-negative bacteria, Salmonella enterica serovar typhimurium C77-31, Salmonella typhimurium ATCC 14028, Escherichia coli ATCC 25922, Pseudomonas aeruginosa ATCC 27853 and gram-positive bacteria, Staphylococcus aureus ATCC 29213, Staphylococcus aureus ATCC 43300, Staphylococcus epidermidis ATCC 12228, Staphylococcus aureus ATCC 25923).

S.typhimurium 7731 = assay type: cell-based, Salmonella enterica serovar typhimurium C77-31
Source text: as §1

IPEC-J2 cells = assay type: cell-based, porcine; conditions: IPEC-J2; ratio of IC50 to GM
Method: (§2) The MTT (3-[4,5 dimethylthiozol-2-yl]-2,5-diphenylterazoliumbromide) dye was selected to analyze the cytotoxicity of peptides against the murine macrophage cell RAW 264.7 (National Collection of Authenticated Cell Cultures, Shanghai, China), human embryonic kidneys (HK293T), and the porcine intestinal epithelial cells (IPEC-J2) as in our previously study ([Li et al., 2020]). In short, the cells (10^4 cells/well) were seeded into 96-well plates and were cultivated overnight. Then the peptides with different final concentration (2μM, 4μM, 8μM, 16μM, 32μM, 64μM, and 128μM) were introduced into the plate and challenged with cells for 24h. After overnight incubation, the 50μl MTT (0.5mg/ml) was added into the cell cultures for 4h. Then the plate was centrifuged to discard the supernatants and obtain the formazan crystals. The DMSO (dimethyl sulfoxide) was employed as a solvent to dissolve the formazan crystals on the bottom of the plate and the optical density was read at 492nm with a microplate reader.

S.aureus 29213 = assay type: cell-based, Staphylococcus aureus ATCC 29213; conditions: 29213
Source text: as §1
(§3) The famous microtiter dilution, National Committee for Clinical Laboratory Standards, was adopted to measure the antimicrobial ability of the engineering peptides ([Chou et al., 2016]). In brief, the 50μl with serial dilution was incubated with the same volume bacteria (1×10^5CFU/ml in midi-logarithmic phase) in a 96-well plate 18–24h at 37°C. The positive control was the bacteria treated with culture medium and the negative control was merely culture medium. The MICs (minimum inhibitory concentrations) were defined as the lowest concentration of peptides that prevented the production of visible turbidity ([Tossi et al., 2000]).

[2] = tested on: hRBC, IPEC-J2, HEK 293T, RAW264.7
Method: Besides, the therapeutic index of peptide in the mammalian eukaryotic cell (RAW 264.7, HEK 293T, and IPEC J2) was also calculated to study the biocompatibility of peptides.

HEK 293T cells = assay type: cell-based, human; conditions: ratio of IC50 to GM
Method: as §2

S.typhimurium 14028 = assay type: cell-based, Salmonella typhimurium ATCC 14028
Source text: as §1

P.aeruginosa 27853 = assay type: cell-based, Pseudomonas aeruginosa ATCC 27853; conditions: 27853
Source text: as §1, §3

E. coli 25922 = assay type: cell-based, Escherichia coli ATCC 25922
Source text: as §1

[3] = tested on: panel of gram-negative and gram-positive bacteria; conditions: over the eight strains of Table 2
Method: as §3

MRSA 43300 = assay type: cell-based, Staphylococcus aureus ATCC 43300; conditions: microtiter dilution, 1×10^5CFU/ml, 18–24h at 37°C, visible turbidity
Source text: as §1, §3

S.aureus 25923 = assay type: cell-based, Staphylococcus aureus ATCC 25923; conditions: 25923
Source text: as §1, §3

RAW 264.7 cells = assay type: cell-based, murine; conditions: RAW264.7; ratio of IC50 to GM
Method: as §2

Compound: C[S+](C)[O-] [DMSO, dimethyl sulfoxide]
- apoptotic cells in epidermal layer (TUNEL) (normal skin tissue): heavy cell apoptosis

Compound: VKKLVKKAVKKLVKKA-NH2 [VL1]
- HC5 (MHC), lowest concentration that caused 5% hemolysis [1]: >128 µM
- Therapeutic index (TI) [1]: >1.00
- MIC (P. aeruginosa 27853): >64 µM
- MIC (S.epidermidis 12228): >64 µM
- MIC (S.typhimurium 7731): >64 µM
- Therapeutic index (TI) (IPEC-J2 cells): 58.65
- MIC (S.aureus 29213): >64 µM
- GMTI, geometric mean of TI of various cell lines [2]: >23.48
- Therapeutic index (TI) (HEK 293T cells): 75.40
- MIC (S.typhimurium 14028): >64 µM
- MIC (P.aeruginosa 27853): >64 µM
- MIC (E. coli 25922): >64 µM
- GMMIC, geometric mean of the MICs [3]: 128.00 µM
- MIC (MRSA 43300): >64 µM
- MIC (S.aureus 25923): >64 µM
- Therapeutic index (TI) (RAW 264.7 cells): 68.71

Compound: VKKWVKKWVKKAVKKA-NH2 [VW2]
- HC5 (MHC), lowest concentration that caused 5% hemolysis [1]: >128 µM
- Therapeutic index (TI) [1]: > 3.08
- MIC (S.epidermidis 12228): 64 µM
- MIC (S.typhimurium 7731): 64 µM
- Therapeutic index (TI) (IPEC-J2 cells): 136.45
- MIC (S.aureus 29213): 64 µM
- GMTI, geometric mean of TI of various cell lines [2]: >53.63
- Therapeutic index (TI) (HEK 293T cells): 144.05
- MIC (S.typhimurium 14028): 64 µM
- MIC (P.aeruginosa 27853): 8 µM
- MIC (E. coli 25922): 8 µM
- GMMIC, geometric mean of the MICs [3]: 41.50 µM
- MIC (MRSA 43300): 64 µM
- MIC (S.aureus 25923): 64 µM
- Therapeutic index (TI) (RAW 264.7 cells): 136.50

Compound: VKKWVKKWVKKAVKKW-NH2 [VW3]
- HC5 (MHC), lowest concentration that caused 5% hemolysis [1]: >128 µM
- Therapeutic index (TI) [1]: > 17.44
- MIC (S.epidermidis 12228): 8 µM
- MIC (S.typhimurium 7731): 8 µM
- Therapeutic index (TI) (IPEC-J2 cells): 646.97
- MIC (S.aureus 29213): 16 µM
- GMTI, geometric mean of TI of various cell lines [2]: >320.73
- Therapeutic index (TI) (HEK 293T cells): 1449.42
- MIC (S.typhimurium 14028): 8 µM
- MIC (P.aeruginosa 27853): 4 µM
- MIC (E. coli 25922): 4 µM
- GMMIC, geometric mean of the MICs [3]: 7.34 µM
- MIC (MRSA 43300): 8 µM
- MIC (S.aureus 25923): 8 µM
- Therapeutic index (TI) (RAW 264.7 cells): 647.10

Compound: VKKWVKKWVKKWVKKA-NH2 [VW4]
- HC5 (MHC), lowest concentration that caused 5% hemolysis [1]: >128 µM
- Therapeutic index (TI) [1]: > 38.1
- MIC (S.epidermidis 12228): 4 µM
- MIC (S.typhimurium 7731): 2 µM
- Therapeutic index (TI) (IPEC-J2 cells): 1855.95
- MIC (S.aureus 29213): 4 µM
- GMTI, geometric mean of TI of various cell lines [2]: >775.15
- Therapeutic index (TI) (HEK 293T cells): 2751.71
- MIC (S.typhimurium 14028): 4 µM
- MIC (P.aeruginosa 27853): 2 µM
- MIC (E. coli 25922): 4 µM
- GMMIC, geometric mean of the MICs [3]: 3.36 µM
- MIC (MRSA 43300): 4 µM
- MIC (S.aureus 25923): 4 µM
- Therapeutic index (TI) (RAW 264.7 cells): 1855.65

— PMC8548882, “The Trp-rich Antimicrobial Amphiphiles With Intramolecular Aromatic Interactions for the Treatment of Bacterial Infection” (Frontiers in Microbiology, 2021)
